Experimental data: patent US8735364B2, “Antisense modulation of apolipoprotein B expression” (Genzyme Corporation, priority 2001, dated 2014)
Oligonucleotides are written 5' to 3', each unit as a sugar letter and its base; * is a phosphorothioate linkage, no mark a phosphodiester; rarer units and linkages stand in square brackets, end groups in braces. Plain capitals give the bases only. e = 2'-O-(2-methoxyethyl) (MOE); [5mC] = 5-methylcytosine; d = 2'-deoxy (DNA)

Assays:
[1] = tested on: mouse apolipoprotein B mRNA; assay: Inhibition of mouse apolipoprotein B mRNA levels in primary hepatocytes, quantitative real-time PCR; assay type: cell-based; parameters: %INHIB of mouse apolipoprotein B mRNA levels: concentration or dose not given beside the values; conditions: for %INHIB of mouse apolipoprotein B mRNA levels: averages from two experiments
Method: Primary mouse hepatocytes were prepared from CD-1 mice purchased from Charles River Labs (Wilmington, Mass.) and were routinely cultured in Hepatoyte Attachment Media (Gibco) supplemented with 10% Fetal Bovine Serum (Gibco/Life Technologies, Gaithersburg, Md.), 250 nM dexamethasone (Sigma), and 10 nM bovine insulin (Sigma). Cells were seeded into 96-well plates (Falcon-Primaria #3872) at a density of 10000 cells/well for use in RT-PCR analysis.
(§1) When cells reached 80% confluency, they were treated with oligonucleotide. For cells grown in 96-well plates, wells were washed once with 200 μL OPTI-MEM™-1 reduced-serum medium (Gibco BRL) and then treated with 130 μL of OPTI-MEM™-1 containing 3.75 μg/mL LIPOFECTIN™ (Gibco BRL) and the desired concentration of oligonucleotide. After 4-7 hours of treatment, the medium was replaced with fresh medium. Cells were harvested 16-24 hours after oligonucleotide treatment.
(§2) Quantitation of apolipoprotein B mRNA levels was determined by real-time quantitative PCR using the ABI PRISM™ 7700 Sequence Detection System (PE-Applied Biosystems, Foster City, Calif.) according to manufacturer's instructions. This is a closed-tube, non-gel-based, fluorescence detection system which allows high-throughput quantitation of polymerase chain reaction (PCR) products in real-time. As opposed to standard PCR, in which amplification products are quantitated after the PCR is completed, products in real-time quantitative PCR are quantitated as they accumulate. This is accomplished by including in the PCR reaction an oligonucleotide probe that anneals specifically between the forward and reverse PCR primers, and contains two fluorescent dyes. A reporter dye (e.g., JOE, FAM, or VIC, obtained from either Operon Technologies Inc., Alameda, Calif. or PE-Applied Biosystems, Foster City, Calif.) is attached to the 5′ end of the probe and a quencher dye (e.g., TAMRA, obtained from either Operon Technologies Inc., Alameda, Calif. or PE-Applied Biosystems, Foster City, Calif.) is attached to the 3′ end of the probe. When the probe and dyes are intact, reporter dye emission is quenched by the proximity of the 3′ quencher dye. During amplification, annealing of the probe to the target sequence creates a substrate that can be cleaved by the 5′-exonuclease activity of Taq polymerase. […] With each cycle, additional reporter dye molecules are cleaved from their respective probes, and the fluorescence intensity is monitored at regular intervals by laser optics built into the ABI PRISM™ 7700 Sequence Detection System. In each assay, a series of parallel reactions containing serial dilutions of mRNA from untreated control samples generates a standard curve that is used to quantitate the percent inhibition after antisense oligonucleotide treatment of test samples.
(§3) PCR reagents were obtained from PE-Applied Biosystems, Foster City, Calif. RT-PCR reactions were carried out by adding 25 μL PCR cocktail (1× TAQMAN™ buffer A, 5.5 mM MgCl2, 300 μM each of DATP, dCTP and dGTP, 600 μM of dUTP, 100 nM each of forward primer, reverse primer, and probe, 20 Units RNAse inhibitor, 1.25 Units AMPLITAQ GOLD™, and 12.5 Units MuLV reverse transcriptase) to 96 well plates containing 25 μL total RNA solution. The RT reaction was carried out by incubation for 30 minutes at 48° C. Following a 10 minute incubation at 95° C. to activate the AMPLITAQ GOLD™, 40 cycles of a two-step PCR protocol were carried out: 95° C. for 15 seconds (denaturation) followed by 60° C. for 1.5 minutes (annealing/extension).
(§4) Gene target quantities obtained by real time RT-PCR are normalized using either the expression level of GAPDH, a gene whose expression is constant, or by quantifying total RNA using RiboGreen™ (Molecular Probes, Inc. Eugene, Oreg.). GAPDH expression is quantified by real time RT-PCR, by being run simultaneously with the target, multiplexing, or separately. Total RNA is quantified using RiboGreen™ RNA quantification reagent from Molecular Probes. […]

[2] = tested on: human apolipoprotein B mRNA; assay: Inhibition of human apolipoprotein B mRNA levels in HepG2 cells, quantitative real-time PCR; assay type: cell-based; parameters: %INHIB of human apolipoprotein B mRNA levels: concentration or dose not given beside the values; conditions: for %INHIB of human apolipoprotein B mRNA levels: averages from two experiments
Method: The human hepatoblastoma cell line HepG2 was obtained from the American Type Culture Collection (Manassas, Va.). HepG2 cells were routinely cultured in Eagle's MEM supplemented with 10% fetal calf serum, non-essential amino acids, and 1 mM sodium pyruvate (Gibco/Life Technologies, Gaithersburg, Md.). Cells were routinely passaged by trypsinization and dilution when they reached 90% confluence. Cells were seeded into 96-well plates (Falcon-Primaria #3872) at a density of 7000 cells/well for use in RT-PCR analysis.
as §1, §2, §3
as §4, with “separately.” for “separately. Total RNA is quantified using RiboGreen™ RNA quantification reagent from Molecular Probes.”

Row | Substance | %INHIB of mouse apolipoprotein B mRNA levels [1] [%] | %INHIB of human apolipoprotein B mRNA levels [2] [%] | further results
1 | 147769 (antisense e[5mC]*eA*eT*eG*e[5mC]*d[5mC]*dT*dG*dG*dA*dA*dG*d[5mC]*d[5mC]*dA*eG*eT*eG*eT*e[5mC]) [compound 147769] | 89 |  | Percent Inhibition of mouse apolipoprotein B mRNA levels ([1]; 50 nM): 3%; Percent Inhibition of mouse apolipoprotein B mRNA levels ([1]; 150 nM): 14%; Percent Inhibition of mouse apolipoprotein B mRNA levels ([1]; 300 nM): 28%
2 | 147770 (antisense eG*eT*eG*eT*eT*dG*dA*dA*dT*d[5mC]*d[5mC]*d[5mC]*dT*dT*dG*eA*eA*eA*eT*e[5mC]) [compound 147770] | 67 |  | 
3 | 147771 (antisense eG*eG*eT*eA*eA*dA*dG*dT*dT*dG*d[5mC]*d[5mC]*d[5mC]*dA*dT*eG*eG*e[5mC]*eT*eG) [compound 147771] | 68 |  | 
4 | 147772 (antisense eG*eT*eT*eA*eT*dA*dA*dA*dG*dT*d[5mC]*d[5mC]*dA*dG*d[5mC]*eA*eT*eT*eG*eG) [compound 147772] | 78 |  | 
5 | 147773 (antisense e[5mC]*eA*eT*e[5mC]*eA*dG*dA*d[5mC]*dG*dT*dG*dA*dT*dG*dT*eT*e[5mC]*e[5mC]*e[5mC]*eT) [compound 147773] | 85 |  | 
6 | 147774 (antisense eT*eG*eG*e[5mC]*eT*dA*dG*dT*dT*dT*d[5mC]*dA*dA*dT*d[5mC]*e[5mC]*e[5mC]*e[5mC]*eT*eT) [compound 147774] | 84 |  | 
7 | 147775 (antisense e[5mC]*eT*eG*eT*e[5mC]*dA*dT*dG*dA*d[5mC]*dT*dG*d[5mC]*d[5mC]*d[5mC]*eT*eT*eT*eA*e[5mC]) [compound 147775] | 52 |  | 
8 | 147776 (antisense eG*e[5mC]*eT*eT*eG*dA*dA*dG*dT*dT*d[5mC]*dA*dT*dT*dG*eA*eG*eA*eA*eT) [compound 147776] | 92 |  | Percent Inhibition of mouse apolipoprotein B mRNA levels ([1]; 50 nM): 0%; Percent Inhibition of mouse apolipoprotein B mRNA levels ([1]; 150 nM): 17%; Percent Inhibition of mouse apolipoprotein B mRNA levels ([1]; 300 nM): 44%
9 | 147778 (antisense eT*e[5mC]*eA*eG*eA*dT*dA*dT*dA*d[5mC]*dA*dT*dT*dG*dG*e[5mC]*eT*eT*e[5mC]*eA) [compound 147778] | 14 |  | 
10 | 147780 (antisense e[5mC]*e[5mC]*eG*e[5mC]*eA*dG*dG*dT*d[5mC]*d[5mC]*d[5mC]*dG*dG*dT*dG*eG*eG*eA*eA*eT) [compound 147780] |  | 40 | 
11 | 147781 (antisense eA*e[5mC]*e[5mC]*eG*eA*dG*dA*dA*dG*dG*dG*d[5mC]*dA*d[5mC]*dT*e[5mC]*eA*eG*e[5mC]*e[5mC]) [compound 147781] |  | 35 | 
12 | 147784 (antisense e[5mC]*eA*eG*e[5mC]*eG*d[5mC]*d[5mC]*dA*dG*d[5mC]*dA*dG*d[5mC]*dG*d[5mC]*e[5mC]*eA*eG*e[5mC]*eA) [compound 147784] |  | 70 | 
13 | 147785 (antisense eG*e[5mC]*e[5mC]*e[5mC]*eG*d[5mC]*d[5mC]*dA*dG*d[5mC]*dA*dG*d[5mC]*dA*dG*e[5mC]*eA*eG*e[5mC]*eA) [compound 147785] |  | 29 | 
14 | 147786 (antisense e[5mC]*eT*eT*eG*eA*dA*dT*d[5mC]*dA*dG*d[5mC]*dA*dG*dT*d[5mC]*e[5mC]*e[5mC]*eA*eG*eG) [compound 147786] |  | 34 | 
15 | 147788 (antisense eT*eT*eT*e[5mC]*eT*dG*dT*dT*dG*d[5mC]*d[5mC]*dA*d[5mC]*dA*dT*eT*eG*e[5mC]*e[5mC]*e[5mC]) [compound 147788] |  | 95 | Percent Inhibition of human apolipoprotein B mRNA levels ([2]; 50 nM): 54%; Percent Inhibition of human apolipoprotein B mRNA levels ([2]; 150 nM): 63%; Percent Inhibition of human apolipoprotein B mRNA levels ([2]; 250 nM): 72%
16 | 147790 (antisense eT*eG*eT*eG*e[5mC]*dT*dA*d[5mC]*d[5mC]*dA*dT*d[5mC]*d[5mC]*d[5mC]*dA*eT*eA*e[5mC]*eT*eT) [compound 147790] |  | 33 | 
17 | 147792 (antisense eG*eG*eA*e[5mC]*eA*d[5mC]*d[5mC]*dT*d[5mC]*dA*dA*dT*d[5mC]*dA*dG*e[5mC]*eT*eG*eT*eG) [compound 147792] |  | 26 | 
18 | 147794 (antisense eG*eT*eA*eA*eT*d[5mC]*dT*dT*d[5mC]*dA*dT*d[5mC]*d[5mC]*d[5mC]*d[5mC]*eA*eG*eT*eG*e[5mC]) [compound 147794] |  | 47 | 
19 | 147796 (antisense eG*e[5mC]*eA*eG*e[5mC]*d[5mC]*dA*dG*dT*d[5mC]*dG*d[5mC]*dT*dT*dA*eT*e[5mC]*eT*e[5mC]*e[5mC]) [compound 147796] |  | 8 | 
20 | 147801 (antisense e[5mC]*eA*eG*eA*e[5mC]*d[5mC]*d[5mC]*dG*dA*d[5mC]*dT*d[5mC]*dG*dT*dG*eG*eA*eA*eG*eA) [compound 147801] |  | 38 | 
21 | 147806 (antisense eA*eT*eG*eT*eG*dG*dT*dA*dA*d[5mC]*dG*dA*dG*d[5mC]*d[5mC]*e[5mC]*eG*eA*eA*eG) [compound 147806] |  | 100 | Percent Inhibition of human apolipoprotein B mRNA levels ([2]; 50 nM): 23%; Percent Inhibition of human apolipoprotein B mRNA levels ([2]; 150 nM): 45%; Percent Inhibition of human apolipoprotein B mRNA levels ([2]; 250 nM): 28%
22 | 147807 (antisense eG*eG*e[5mC]*eG*eT*dA*dG*dA*dG*dA*d[5mC]*d[5mC]*d[5mC]*dA*dT*e[5mC]*eA*e[5mC]*eA*eT) [compound 147807] |  | 25 | 
23 | 147809 (antisense e[5mC]*e[5mC]*e[5mC]*eA*eG*dT*dG*dA*dT*dA*dG*d[5mC]*dT*d[5mC]*dT*eG*eT*eG*eA*eG) [compound 147809] |  | 60 | 
24 | 147810 (antisense eA*eT*eT*eT*e[5mC]*dA*dG*d[5mC]*dA*dT*dA*dT*dG*dA*dG*e[5mC]*e[5mC]*e[5mC]*eA*eT) [compound 147810] |  | 0 | 
25 | 147814 (antisense e[5mC]*e[5mC]*e[5mC]*eA*eA*dT*dA*dA*dG*dA*dT*dT*dT*dA*dT*eA*eA*e[5mC]*eA*eA) [compound 147814] |  | 34 | 
26 | 147815 (antisense eT*eG*eG*e[5mC]*e[5mC]*dT*dA*d[5mC]*d[5mC]*dA*dG*dA*dG*dA*d[5mC]*eA*eG*eG*eT*eA) [compound 147815] |  | 45 | 
27 | 147818 (antisense eA*eG*eT*eG*eA*dT*dG*dG*dA*dA*dG*d[5mC]*dT*dG*d[5mC]*eG*eA*eT*eA*e[5mC]) [compound 147818] |  | 30 | 
